In patent publication US20260216238A1, “TETRATHIOMOLYBDIC ACID FOR USE IN TREATING COPPER METABOLISM-ASSOCIATED DISEASES OR DISORDERS (WILSON DISEASE)” (Alexion Pharmaceuticals, Inc., priority 2023, published 2026):

How the values were obtained:
[1] = tested on: patients with Wilson disease (WD); details: FIG. 23; TTM versus SoC chelator therapy
Excerpt: Urine samples were collected for analysis of urine copper and molybdenum.

[2] = tested on: patients with Wilson disease (WD); details: in vivo

bis-choline tetrathiomolybdate [TTM]
24-hour urinary copper [1]: lower with TTM than SoC chelator therapy
AEs in SOC Investigations [2]: 29.5%
AEs in SOC Metabolism and nutrition disorders [2]: 11.5%
AEs in SOC Skin and subcutaneous tissue disorders [2]: 13.1%
Affective disorder, E (events) [2]: 0
Affective disorder, participants with AE [2]: 0 N (%)
Alanine aminotransferase increased AE, % participants [2]: 19.7%
Alanine aminotransferase increased AE, E events [2]: 14
Alanine aminotransferase increased AE, N participants [2]: 12
Anxiety, E (events) [2]: 1
Anxiety, participants with AE [2]: 1 (1.6) N (%)
Aspartate aminotransferase increased AE, % participants [2]: 6.6%
Aspartate aminotransferase increased AE, E events [2]: 4
Aspartate aminotransferase increased AE, N participants [2]: 4
Attention deficit hyperactivity disorder, E (events) [2]: 0
Attention deficit hyperactivity disorder, participants with AE [2]: 0 N (%)
Blood and lymphatic system disorders, E (events) [2]: 18
Blood and lymphatic system disorders, participants with AE [2]: 7 (11.5) N (%)
Cardiac disorders, E (events) [2]: 5
Cardiac disorders, participants with AE [2]: 3 (4.9) N (%)
Congenital, familial, and genetic disorders, E (events) [2]: 0
Congenital, familial, and genetic disorders, participants with AE [2]: 0 N (%)
Dyslipidemia AE, % participants [2]: 1.6%
Dyslipidemia AE, E events [2]: 1
Dyslipidemia AE, N participants [2]: 1
Ear and labyrinth disorders, E (events) [2]: 1
Ear and labyrinth disorders, participants with AE [2]: 1 (1.6) N (%)
Eczema AE, % participants [2]: 1.6%
Eczema AE, E events [2]: 1
Eczema AE, N participants [2]: 1
Eye disorders, E (events) [2]: 0
Eye disorders, participants with AE [2]: 0 N (%)
Fatigue AE, % participants [2]: 8.2%
Fatigue AE, E events [2]: 5
Fatigue AE, N participants [2]: 5
Gamma-glutamyltransferase increased AE, % participants [2]: 4.9%
Gamma-glutamyltransferase increased AE, E events [2]: 3
Gamma-glutamyltransferase increased AE, N participants [2]: 3
Gastrointestinal disorders, E (events) [2]: 30
Gastrointestinal disorders, participants with AE [2]: 18 (29.5) N (%)
Hand dermatitis AE, % participants [2]: 1.6%
Hand dermatitis AE, E events [2]: 1
Hand dermatitis AE, N participants [2]: 1
Hepatic enzyme increased AE, N participants [2]: 3
Hepatobiliary disorders, E (events) [2]: 3
Hepatobiliary disorders, participants with AE [2]: 2 (3.3) N (%)
Hyperlipidaemia AE, % participants [2]: 1.6%
Hyperlipidaemia AE, E events [2]: 1
Hyperlipidaemia AE, N participants [2]: 1
Hypertriglyceridaemia AE, % participants [2]: 1.6%
Hypertriglyceridaemia AE, E events [2]: 3
Hypertriglyceridaemia AE, N participants [2]: 1
Infections and infestations, E (events) [2]: 23
Infections and infestations, participants with AE [2]: 17 (27.9) N (%)
Injury, poisoning and procedural complications, E (events) [2]: 13
Injury, poisoning and procedural complications, participants with AE [2]: 7 (11.5) N (%)
Investigations (SOC) AE, % participants [2]: 29.5%
Investigations (SOC) AE, E events [2]: 29
Investigations (SOC) AE, N participants [2]: 18
Metabolism and nutrition disorders (SOC) AE, % participants [2]: 11.5%
Metabolism and nutrition disorders (SOC) AE, E events [2]: 10
Metabolism and nutrition disorders (SOC) AE, N participants [2]: 7
Neoplasms benign, malignant, and unspecified (incl cysts and polyps), E (events) [2]: 1
Neoplasms benign, malignant, and unspecified (incl cysts and polyps), participants with AE [2]: 1 (1.6) N (%)
Nervous system disorders, E (events) [2]: 12
Nervous system disorders, participants with AE [2]: 11 (18.0) N (%)
Neutrophil count decreased AE, % participants [2]: 1.6%
Neutrophil count decreased AE, E events [2]: 1
Neutrophil count decreased AE, N participants [2]: 1
Post-traumatic stress disorder, E (events) [2]: 1
Post-traumatic stress disorder, participants with AE [2]: 1 (1.6) N (%)
Product issues, E (events) [2]: 0
Product issues, participants with AE [2]: 0 N (%)
Pruritus AE, % participants [2]: 3.3%
Pruritus AE, E events [2]: 2
Pruritus AE, N participants [2]: 2
Psychiatric disorders, E (events) [2]: 3
Psychiatric disorders, participants with AE [2]: 3 (4.9) N (%)
Pyrexia AE, % participants [2]: 1.6%
Pyrexia AE, E events [2]: 1
Pyrexia AE, N participants [2]: 1
Rash AE, % participants [2]: 1.6%
Rash AE, E events [2]: 5
Rash AE, N participants [2]: 1
Rash pruritic AE, % participants [2]: 1.6%
Rash pruritic AE, E events [2]: 1
Rash pruritic AE, N participants [2]: 1
Renal and urinary disorders, E (events) [2]: 2
Renal and urinary disorders, participants with AE [2]: 1 (1.6) N (%)
Reproductive system and breast disorders, E (events) [2]: 0
Reproductive system and breast disorders, participants with AE [2]: 0 N (%)
Respiratory, thoracic, and mediastinal disorders, E (events) [2]: 4
Respiratory, thoracic, and mediastinal disorders, participants with AE [2]: 3 (4.9) N (%)
Restlessness, E (events) [2]: 0
Restlessness, participants with AE [2]: 0 N (%)
Skin and subcutaneous tissue disorders (SOC) AE, % participants [2]: 13.1%
Skin and subcutaneous tissue disorders (SOC) AE, E events [2]: 15
Skin and subcutaneous tissue disorders (SOC) AE, N participants [2]: 8
Sleep disorder, E (events) [2]: 1
Sleep disorder, participants with AE [2]: 1 (1.6) N (%)
Vascular disorders, E (events) [2]: 5
Vascular disorders, participants with AE [2]: 3 (4.9) N (%)
